{
  "source": "patent US20130269058A1",
  "about": "“PLANTS RESISTANT TO FUNGAL PATHOGENS AND METHODS FOR PRODUCTION THEREOF” (GENOPLANTE-VALOR, priority 2010, published 2013)",
  "key": {"WAK91 gene expression": {"system": "WAK91 gene expression", "assay": "Chitin sprayed on healthy rice plants; WAK91 expression by QRT-PCR normalized by actin", "format": "in vivo, rice (Oryza sativa L., cultivar Nipponbare)", "procedure": "(§1) FIG. 2: Chitin induces WAK91 expression. Chitin fragments (two concentrations) were sprayed on healthy rice plants. Chitin alone is sufficient to induce WAK91 (up to 4×) in entire plants after 15 minutes. The PR5 and PDX223 classical defense genes are induced later. (A) The expression value of the WAK91, PR5 and PDX223 gene expression (normalized by actin) was measured at the indicated time after treatment. (B) The expression value after chitin treatment was divided by the expression value in untreated plants and the ratio was log transformed.\n(§2) Gene expression was performed using Quantitative RT-PCR as described in Vergne et al (2007). For RT-QPCR applications, frozen tissue were ground in liquid nitrogen. Approximately 500 μl of powder was then treated with 1 ml of TRIZOL supplied by Invitrogen, vortexed for 30 s and incubated at room temperature for 15 minutes. […] Two microlitres of cDNA (dilution 1/10) were then used for quantitative RT-PCR. Quantitative RT-PCR mixtures contained PCR buffer, dNTP (0.25 mM), MgCl2 (2.5 mM), forward and reverse primers ([…]), 1 U of HotGoldStar polymerase and SYBR Green PCR mix as per the manufacturer's recommendations (Eurogentec, Seraing, Belgium). […] The quantitative RT-PCR (QRT-PCR) reactions were performed using a MX3000P machine (Stratagene) and data were extracted using the MX3000P software. […]"}, "[1]": {"system": "PR5 and PDX223 classical defense genes", "assay": "Chitin sprayed on healthy rice plants; defense gene expression by QRT-PCR normalized by actin", "format": "in vivo, rice (Oryza sativa L., cultivar Nipponbare)", "conditions": "chitin fragments sprayed on healthy rice plants; timing relative to WAK91 induction", "procedure": "as §1, §2"}},
  "data": [
    {"substance": "chitin", "values": [
      {"measurement": "induction of WAK91 expression", "setting": "WAK91 gene expression; chitin fragments (two concentrations) sprayed on healthy rice plants, entire plants, after 15 minutes, versus untreated plants", "result": "up to 4 ×"},
      {"measurement": "WAK91 induction (in words)", "setting": "WAK91 gene expression; chitin used as described in Miya et al (2007), FIG. 2", "result": "sufficient to cause WAK91 induction"},
      {"measurement": "induction of PR5 and PDX223 defense genes (in words)", "setting": "[1]", "result": "induced later"}
    ]}
  ]
}
